Source: patent US9877961B2, “Anticoagulant reversal agents” (PEROSPHERE INC., priority 2011, dated 2018)
Marks after values point to notes of the source that are not given here.

Key:
[1] = test system: apixaban (ELIQUIS®) anticoagulation; assay: Rat tail transection bleeding assay, apixaban; format: in vivo; settings: apixaban, oral; Bleeding assay; minimal in vivo reversal dose; assumes 50% oral bioavailability
Experimental: (§1) Rat tail bleeding assay or rat tail transection assay is an assay that measures blood loss, e.g., blood loss after drug administration. In one embodiment, where the effect of the compound of the invention (e.g., DAP) is being tested, at the Tmax of the anticoagulant, DAP is administered intravenously. After 20 minutes, rat tails are transected approximately 1 mm from the tip, placed in room temperature saline, and blood is collected for 30 minutes and weighed.
(§2) Three rats each were administered 2 mg of rivaroxaban. One rat received a sham reversal containing no DAP, the second received 2.5 mg of DAP, and the third received 12.5 mg DAP. A fourth fat received sham anticoagulant and reversal doses (“sham”). 20 minutes after the reversal dose, tails were transected 1 mm from the tip, placed in room temperature saline, and blood loss was collected for 30 minutes and then weighed.
Same procedures were used with 1.25 mg apixaban (ELIQUIS®) alone or in combination with 5 or 12.5 mg DAP; with 15.5 mg dabigatran etexilate (PRADAXA®) alone or in combination with 5 or 12.5 mg DAP; and with 5 mg edoxaban (LIXIANA®) alone or in combination with 12.5 mg DAP.

[2] = assumption used for Table 3; cited from earlier work
[3] = Binding of anticoagulants to DAP (DLS; summary Tables 2 and 3); settings: lowest DAP:anticoagulant ratio with association above 50 nm apparent diameter in phosphate buffered saline
[4] = test system: dabigatran (PRADAXA®) anticoagulation; assay: DAP reversal of dabigatran (PRADAXA®) anticoagulation in vivo, aPTT; set-up: species or system rat; settings: 40 mg/kg oral gavage, 2 hours; baseline 43 seconds
Excerpt: The activated partial thromboplastin time (aPTT) assay is an assay that measures how long it takes for the blood to clot. Blood samples are collected for direct measurement or in tubes with oxalate and citrate to arrest coagulation by calcium until the assay can be performed. In the assay, a phospholipid, an activator (silica, celite, kaolin, ellagic acid, etc.), and calcium are mixed into the plasma to induce coagulation. The assay measures the time until a thrombus (clot) forms.
A male albino rat, weighing 430 g, was administered 40 mg/kg of PRADAXA® (20 mg PRADAXA®; overdose of PRADAXA®) by oral gavage.
Approximately 2 hours into PRADAXA® treatment, 200 mg/kg DAP (100 mg DAP) was administered as an intravenous bolus injection. Approximately 2 hours later, the rat was administered a dose of 100 mg/kg of DAP (50 mg DAP). In another hour, the rat was administered another dose of 100 mg/kg of DAP (50 mg DAP). aPTT was measured throughout the course of the entire treatment.

Factor Xa = settings: cited from earlier work
[5] = cited from earlier work
[6] = test system: fondaparinux anticoagulation; assay: DAP reversal of fondaparinux (ARIXTRA®) anticoagulation in vivo, chromogenic Factor Xa assay; set-up: species or system rat; settings: fondaparinux s.c.; Xa kit; 200 mg/kg DAP was the lowest dose administered
Experimental: The anti-factor Xa assay directly measures anti-factor Xa activity. The methodology behind an anti-factor Xa assay is that patient plasma is added to a known amount of excess factor Xa and excess antithrombin. If a factor Xa inhibitor is present in the patient plasma, it will reduce the enzymatic activity of factor Xa. The amount of residual factor Xa is inversely proportional to the amount of anti-Xa agent in the plasma. The amount of residual factor Xa is detected by adding a chromogenic substrate that mimics the natural substrate of factor Xa, making residual factor Xa cleave it, releasing a colored compound that can be detected by a spectrophotometer. […] Results are given in anticoagulant concentration in units/mL of antifactor Xa, such that high values indicate high levels of anticoagulation and low values indicate low levels of anticoagulation.
5 mg/kg fondaparinux was administered subcutaneously to rats. 200 mg/kg DAP was administered intravenously after 2 hours. Activity was measured by chromogenic 510 k cleared Factor Xa Assay (Biophen) at 10, 20, 30 and 60 minutes after DAP administration.

[7] = test system: rivaroxaban anticoagulation; assay: Rat tail transection bleeding assay, rivaroxaban; format: in vivo; settings: rivaroxaban, oral; Bleeding assay; minimal in vivo reversal dose; assumes 60% oral bioavailability
Experimental: as §1, §2

COc1ccc(-n2nc(C(N)=O)c3c2C(=O)N(c2ccc(N4CCCCC4=O)cc2)CC3)cc1 [Apixaban, 1-(4-methoxyphenyl)-7-oxo-6-[4-(2-oxopiperidin-1-yl)phenyl]-4,5-dihydropyrazolo[5,4-c]pyridine-3-carboxamide]
Reversal Molar Ratio [DAP/drug] [1]: 8*
oral bioavailability (assumed) [2]: 50%
DLS Binding Molar Ratio [DAP/drug] [3]: 10

CCCCCCOC(=O)NC(=N)c1ccc(NCc2nc3cc(C(=O)N(CCC(=O)OCC)c4ccccn4)ccc3n2C)cc1.CS(=O)(=O)O [Dabigatran etexilate, β-Alanine, N-[[2-[[[4-[[[(hexyloxy)carbonyl]amino]iminomethyl]phenyl]amino]methyl]-1-methyl-1H-benzimidazol-5-yl]carbonyl]-N-2-pyridinyl-,ethyl ester, methanesulfonate]
aPTT after PRADAXA® administration [4]: 81 s
oral bioavailability (assumed) [2]: 5%

CO[C@H]1O[C@H](COS(=O)(=O)[O-])[C@@H](O[C@@H]2O[C@@H](C(=O)[O-])[C@@H](O[C@H]3O[C@H](COS(=O)(=O)[O-])[C@@H](O[C@@H]4O[C@H](C(=O)[O-])[C@@H](O[C@H]5O[C@H](COS(=O)(=O)[O-])[C@@H](O)[C@H](O)[C@H]5NS(=O)(=O)[O-])[C@H](O)[C@H]4O)[C@H](OS(=O)(=O)[O-])[C@H]3NS(=O)(=O)[O-])[C@H](O)[C@H]2OS(=O)(=O)[O-])[C@H](O)[C@H]1NS(=O)(=O)[O-].[Na+].[Na+].[Na+].[Na+].[Na+].[Na+].[Na+].[Na+].[Na+].[Na+] [Fondaparinux, methyl O-2-deoxy-6-O-sulfo-2-(sulfoamino)-α-D-glucopyranosyl-(1→4)-O-β-D-glucopyra-nuronosyl-(1→4)-O-2-deoxy-3,6-di-O-sulfo-2-(sulfoamino)-α-D-glucopyranosyl-(1→4)-O-2-O-sulfo-α-L-idopyranuronosyl-(1→4)-2-deoxy-6-O-sulfo-2-(sulfoamino)-α-D-glucopyranoside, decasodium salt]
potentiation of innate neutralization of Factor Xa by ATIII (Factor Xa): about 300 times
time to peak steady-state plasma concentration ([5]; patients, 2.5 mg once daily, post-dose): approximately 3 hours
absolute bioavailability ([5]; subcutaneous injection): 100%
Reversal Molar Ratio [DAP/drug] [6]: 130
DLS Binding Molar Ratio [DAP/drug] [3]: 3

O=C(NC[C@H]1CN(c2ccc(N3CCOCC3=O)cc2)C(=O)O1)c1ccc(Cl)s1 [Rivaroxaban, 5-Chloro-N-({(5S)-2-oxo-3-[4-(3-oxo-4-morpholinyl)phenyl]-1,3-oxazolidin-5-yl}methyl)-2-thiophenecarboxamide]
Reversal Molar Ratio [DAP/drug] [7]: 3*
oral bioavailability (assumed) [2]: 60%
DLS Binding Molar Ratio [DAP/drug] [3]: 9
